Results on three molecules are retold here after patent US20250042937A1, “RAPID, GREEN, DISULFIDE BOND FORMATION IN WATER USING DICYANOCOBINAMIDE” (Syracuse University, priority 2023, published 2025).

As usually defined, the Kd is the equilibrium constant for the complex coming apart. Low values mean a tighter complex, high ones a looser complex.

One series has as its system rat retinas. Conditions: low doses (2-5%); cited from earlier work.
The next series deals with T1, oxytocin receptor (Homo sapiens, UniProt P30559).
T1 sequence (P30559 1-389): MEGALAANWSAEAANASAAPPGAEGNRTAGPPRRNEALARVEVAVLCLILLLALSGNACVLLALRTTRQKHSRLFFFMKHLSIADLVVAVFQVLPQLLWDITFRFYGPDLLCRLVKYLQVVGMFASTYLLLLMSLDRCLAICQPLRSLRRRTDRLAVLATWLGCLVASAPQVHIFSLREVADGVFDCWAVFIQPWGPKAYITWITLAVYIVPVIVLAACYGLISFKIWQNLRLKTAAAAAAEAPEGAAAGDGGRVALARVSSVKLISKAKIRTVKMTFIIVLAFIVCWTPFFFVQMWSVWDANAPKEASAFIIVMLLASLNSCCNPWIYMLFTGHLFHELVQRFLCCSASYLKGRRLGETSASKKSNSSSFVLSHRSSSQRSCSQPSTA
Briefly: screening at the oxytocin receptor (agonism) after Cbi oxidation. Conditions: peptide oxidized with Cbi; free or conjugated to B12. Format: cell-based.

Regarding `C[S+](C)[O-]` [DMSO, dimethyl sulfoxide], in the series with rat retinas, the cytotoxicity entry was “cytotoxic”.

On oxytocin receptor, `CC[C@H](C)[C@@H]1NC(=O)[C@H](Cc2ccc(O)cc2)NC(=O)[C@@H](N)CSSC[C@@H](C(=O)N2CCC[C@H]2C(=O)N[C@@H](CCCCN=[N+]=[N-])C(=O)NCC(N)=O)NC(=O)[C@H](CC(N)=O)NC(=O)[C@H](CCC(N)=O)NC1=O` [OT] displayed a Kd of 4.39 nM.

Regarding “OT after conjugation to B12: OT peptide conjugated to vitamin B12”, in the series with oxytocin receptor, the Kd worked out at 4.63 nM.
